Data published in patent publication US11142527B2, “Dihydropyrimidine compounds and uses thereof in medicine” (SUNSHINE LAKE PHARMA CO., LTD., priority 2017, dated 2021).

Columns and labels:
HBV = assay: Test of anti HBV activity in vitro (viral DNA by qPCR); assay type: cell-based; conditions: Hepatitis B virus; HepG2.2.15 cells, viral DNA in cell culture supernatant by qPCR; read-out: EC50 values of the compound of the invention on viral replication
Procedure, shortened: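 HepG2.2.15 cells (integrated HBV genome) were grown to confluence, then treated with compound in 4-fold dilutions from 4 μM final (0.5% DMSO). Secreted viral DNA in supernatant was quantified by SYBR qPCR against an HBV plasmid standard curve; EC50 from four-parameter nonlinear regression of concentration versus copy number.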

[1] = Cytotoxicity test with CellTiter Glo; assay type: cell-based; conditions: human, HepG2.2.15 cells, highest concentration 150 μM, read-out: CC50 values of the compounds of the invention
Protocol: Test 2: Cytotoxicity and Selectivity Index
Methods of Testing Cytotoxicity and Selectivity Index
The serial diluted compound was added to a 384 wells plate at 50 μL HepG2.2.15 cell per well (3000 cells per well), the highest final concentration in the experiment is 150 μM (200 fold dilution). The plate was cultured at 37° C. in an incubator with CO2 for 4 days, and cytotoxicity of the compound was detected using CellTiter Glo agent.
The cytotoxicity of the compound was calculated using the following formulate, cytotoxicity (%)=100−(detection value/mean of DMSO control wells values×100) CC50 values were calculated by a four parametric nonlinear regression model using Graphpad Prism 5 software to manage concentration−cytotoxicity (%).

| SMILES | EC50 (HBV) [µM] | CC50 at 4 days [1] [µM] |
| --- | --- | --- |
| COC(=O)C1=C(CN2CCN3C(=O)N(c4ccc(-c5ccc(C(=O)O)cc5)nc4)C[C@@H]3C2)NC(c2nccs2)=N[C@H]1c1ccc(F)cc1Cl [Example 122, 4-(5-((S)-7-(((R)-6-(2-chloro-4-fluorophenyl)-5-(methoxycarbonyl)-2-(thiazol-2-yl)-3,6-dihydropyrimidin-4-yl)methyl)-3-oxohexahydroimidazo[1,5-a]pyrazin-2(3H)-yl)pyridin-2-yl)benzoic acid] | 0.0456 | > 150 |
| COC(=O)C1=C(CN2CCN3C(=O)N(c4ccc(Oc5ccc(OC)cc5)cc4)C[C@@H]3C2)NC(c2nccs2)=N[C@H]1c1ccc(F)cc1Cl [Example 103, (R)-methyl 4-(2-chloro-4-fluorophenyl)-6-(((S)-2-(4-(4-methoxyphenoxy)phenyl)-3-oxohexahydroimidazo[1,5-a]pyrazin-7(1H)-yl)methyl)-2-me (thiazol-2-yl)-1,4-dihydropyrimidine-5-carboxylate] | 0.0194 | > 150 |
| COC(=O)C1=C(CN2CCN3C(=O)N(CC#Cc4c(C)cc(C#N)cc4C)C[C@@H]3C2)NC(c2nccs2)=N[C@H]1c1ccc(F)cc1Cl [Example 48, (R)-methyl 4-(2-chloro-4-fluorophenyl)-6-(((S)-2-(3-(4-cyano-2,6-dimethylphenyl)-2-propynyl)-3-oxohexahydroimidazo[1,5-a]pyrazin-7(1H)-yl)methyl)-2-me (thiazol-2-yl)-1,4-dihydropyrimidine-5-carboxylate] | 0.0063 | > 150 |
| COC(=O)C1=C(CN2CCN3C(=O)N(c4ccc(-c5ccc(C(C)(C)C(=O)O)cc5)nc4)C[C@@H]3C2)NC(c2nccs2)=N[C@H]1c1ccc(F)cc1Cl [Example 125, 2-(4-(5-((S)-7-(((R)-6-(2-chloro-4-fluorophenyl)-5-(methoxycarbonyl)-2-(thiazol-2-yl)-3,6-dihydropyrimidin-4-yl)methyl)-3-oxohexahydroimidazo[1,5-a]pyrazin-2(3H)-yl)pyridin-2-yl)phenyl)-2-methylpropanoic acid] | 0.021 | > 150 |
| COC(=O)C1=C(CN2CCN3C(=O)N(c4nc(-c5ccc(C(=O)O)c(F)c5)cs4)C[C@@H]3C2)NC(c2nccs2)=N[C@H]1c1ccc(F)cc1Cl [Example 137, 4-(2-((S)-7-(((R)-6-(2-chloro-4-fluorophenyl)-5-(methoxycarbonyl)-2-(thiazol-2-yl)-3,6-dihydropyrimidin-4-yl)methyl)-3-oxohexahydroimidazo[1,5-a]pyrazin-2(3H)-yl)thiazol-4-yl)-2-fluorobenzoic acid] | 0.01 | > 150 |
| COC(=O)C1=C(CN2CCN3C(=O)N(c4ccc(C5(C#N)CC5)cc4)C[C@@H]3C2)NC(c2nccs2)=N[C@H]1c1ccc(F)cc1Cl [Example 26] | 0.001 | > 150 |
| COC(=O)C1=C(CN2CCN3C(=O)N(c4ccc(-c5ccc(C(C)(C)C(=O)O)cc5)cn4)C[C@@H]3C2)NC(c2nccs2)=N[C@H]1c1ccc(F)cc1Cl [Example 19, 2-(4-(6-((S)-7-(((R)-6-(2-chloro-4-fluorophenyl)-5-(methoxycarbonyl)-2-(thiazol-2-yl)-3,6-dihydropyrimidin-4-yl)methyl)-3-oxohexahydroimidazo[1,5-a]pyrazin-2(3H)-yl)pyridin-3-yl)phenyl)-2-methylpropionic acid] | 0.014 | > 150 |
| COC(=O)C1=C(CN2CCN3C(=O)N(c4ccc(Oc5ccc(S(C)(=O)=O)cc5)cc4)C[C@@H]3C2)NC(c2nccs2)=N[C@H]1c1ccc(F)cc1Cl [Example 106, (R)-methyl 4-(2-chloro-4-fluorophenyl)-6-(((S)-2-(4-(4-(methylsulfonyl)phenoxy)phenyl)-3-oxohexahydroimidazo[1,5-a]pyrazin-7(1H)-yl)methyl)-2-(thiazol-2-yl)-1,4-dihydropyrimidine-5-carboxylate] | 0.0062 | > 150 |
